Results as given in patent US20180303807A1, “ANDROGEN RECEPTOR LIGANDS” (DUKE UNIVERSITY, priority 2015, published 2018).
Substitutions are numbered along the chain they refer to.

Columns and labels:
AR [1] = molecular target: T1, AR (Homo sapiens, UniProt P10275, T878A); test: In Cell Western AR degradation assay in LNCaP cells; type: cell-based; conditions: 18 hrs, greater than 50% degradation at 10 μM (method says 20 μM)
T1 construct: endogenous in cells; host or cells: LNCaP cells
T1 sequence (P10275 1-920 T878A): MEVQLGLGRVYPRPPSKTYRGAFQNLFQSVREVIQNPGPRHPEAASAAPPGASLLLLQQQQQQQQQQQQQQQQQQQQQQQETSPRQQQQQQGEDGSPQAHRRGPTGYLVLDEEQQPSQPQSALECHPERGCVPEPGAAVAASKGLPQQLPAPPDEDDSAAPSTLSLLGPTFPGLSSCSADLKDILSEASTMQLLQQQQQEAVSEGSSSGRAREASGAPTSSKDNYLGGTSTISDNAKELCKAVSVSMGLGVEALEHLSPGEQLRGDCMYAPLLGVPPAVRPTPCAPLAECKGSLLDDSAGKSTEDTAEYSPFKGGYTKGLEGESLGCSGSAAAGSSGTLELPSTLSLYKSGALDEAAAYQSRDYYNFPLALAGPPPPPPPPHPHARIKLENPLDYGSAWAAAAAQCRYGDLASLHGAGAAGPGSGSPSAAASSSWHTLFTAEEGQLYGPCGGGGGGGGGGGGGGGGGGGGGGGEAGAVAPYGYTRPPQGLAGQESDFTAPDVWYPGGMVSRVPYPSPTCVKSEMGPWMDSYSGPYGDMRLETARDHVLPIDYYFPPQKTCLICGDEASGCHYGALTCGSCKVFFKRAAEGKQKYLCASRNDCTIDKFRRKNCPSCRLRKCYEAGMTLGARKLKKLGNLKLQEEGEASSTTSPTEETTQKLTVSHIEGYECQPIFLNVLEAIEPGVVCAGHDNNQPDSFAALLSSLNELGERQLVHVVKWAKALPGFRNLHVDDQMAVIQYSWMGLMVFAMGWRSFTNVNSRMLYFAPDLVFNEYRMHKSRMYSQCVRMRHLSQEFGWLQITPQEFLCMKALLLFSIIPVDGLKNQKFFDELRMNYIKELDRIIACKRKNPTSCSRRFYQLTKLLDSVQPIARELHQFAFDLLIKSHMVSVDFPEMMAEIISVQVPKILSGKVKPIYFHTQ
Experimental: In Cell Western (AR degradation Assay, Table 2, B10). LNCaP cells were plated in 96-well clear bottom black plates (20K cells/well) in RPMI supplemented with 8% CFS. Following 48 hr incubation, cells were treated with hormone (20 μM test compound) for 18 hrs. Cells were fixed with formaldehyde (3.7%) and permeabilized using PBS (0.1% TRITON X-100). Cells were incubated with anti-AR antibody (N20, 1:2000), washed with PBS (0.1% Tween), and stained with 2nd antibody (Biotium CF770 goat anti-rabbit, 1:2000). AR protein expression was assessed using the LI-COR Odyssey imaging system. DRAQ5 (DNA stain, 1:10,000, Thermo Scientific) was used to normalize AR protein expression.
For B4-B7, scoring system is based on the relative AR target gene agonist/antagonist activity of test compounds when compared to benchmark compounds enzalutamide or bicalutamide. […] The lack of agonist activity is desirable for therapies intended to treat CRPC. For B4 and B6, a score of 1 indicates less agonism (highly desired activity) than benchmark compound enzalutamide, a score of 2 indicates equal agonism to enzalutamide (desirable), a score of 3 indicates agonism between enzalutamide and bicalutamide (less desirable activity), a score of 4 indicates equal agonism to bicalutamide (liability), and a score of 5 indicates higher agonism than bicalutamide (liability). For B5 and B7 a score of 1 indicates higher antagonist efficacy (highly desired activity) than benchmark compound enzalutamide, a score of 2 indicates equal antagonist efficacy to enzalutamide (desirable), a score of 3 indicates antagonist efficacy between enzalutamide and bicalutamide (less desirable activity), a score of 4 indicates antagonist efficacy equal to bicalutamide (liability), and a score of 5 indicates antagonist efficacy worse than bicalutamide (liability) For B9, Compounds that degrade AR (greater than 50% degradation at 10 μM) are indicated.

AR [2] = molecular target: T2, AR (Homo sapiens, UniProt P10275); test: Reporter gene assay, AR transcriptional (MMTV-Luc) in CV1 cells; type: cell-based; conditions: pcDNA-AR + MMTV-Luc, 0.1 nM R1881 plus test compound, 24 hrs, read-out: B1 = AR transcriptional IC50 (μM) in CV1 cells
T2 construct: expressed in transfected cells; host or cells: CV1 cells
T2 sequence (P10275 1-920): T1 sequence (P10275 1-920 T878A) with A878T
Summary of the method: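 CV1 cells transiently co-transfected with human AR, MMTV-Luc reporter and Renilla-Luc (transfection efficiency and toxicity read-out), then stimulated 24 h with 0.1 nM R1881 plus increasing test compound concentrations. Firefly and Renilla luciferase quantified by dual-luciferase assay; IC50 derived from concentration-response.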

IC50 (AR [2]) [µM]	Compound	B9 = AR degradation in LNCaP cells (In-Cell Western) (AR [1])
1.8	CC1(C)CC(=O)C2=C(C1)Nc1ccc3ncccc3c1C2c1cc(Br)cs1 (centres unmarked) [Compound A61]	Degrader (Compounds that degrade AR (greater than 50% degradation at 10 μM) are indicated)
> 10	CC1(C)CC(=O)C2=C(C1)Nc1ccc3ncccc3c1C2c1sccc1Br (centres unmarked) [Compound A62]	Degrader (Compounds that degrade AR (greater than 50% degradation at 10 μM) are indicated)
1.9	CC1(C)CC(=O)C2=C(C1)Nc1ccc3ncccc3c1C2c1ccc(Br)s1 (centres unmarked) [Compound A63]	Degrader (Compounds that degrade AR (greater than 50% degradation at 10 μM) are indicated)
1.9	CC1(C)CC(=O)C2=C(C1)Nc1ccc3ncccc3c1C2c1ccc(Cl)s1 (centres unmarked) [Compound A64]	Degrader (Compounds that degrade AR (greater than 50% degradation at 10 μM) are indicated)
> 10	CC1(C)CC(=O)C2=C(C1)Nc1ccc3ncccc3c1C2c1nccs1 (centres unmarked) [Compound A67]	Degrader (Compounds that degrade AR (greater than 50% degradation at 10 μM) are indicated)
> 10	CC1(C)CC(=O)C2=C(C1)Nc1ccc3ncccc3c1C2c1c[nH]c2ccc(F)cc12 (centres unmarked) [Compound A68]	Degrader (Compounds that degrade AR (greater than 50% degradation at 10 μM) are indicated)
6.1	CC1(C)CC(=O)C2=C(C1)Nc1ccc3ncccc3c1C2c1ccsc1 (centres unmarked) [Compound A69]	Degrader (Compounds that degrade AR (greater than 50% degradation at 10 μM) are indicated)
> 10	CC1(C)CC(=O)C2=C(C1)Nc1ccc3ncccc3c1C2c1cccc(C(F)(F)F)c1 (centres unmarked) [Compound A70]	Degrader (Compounds that degrade AR (greater than 50% degradation at 10 μM) are indicated)
6.9	CC1(C)CC(=O)C2=C(C1)Nc1ccc3ncccc3c1C2c1ccc(Cl)nc1 (centres unmarked) [Compound A71]	Degrader (Compounds that degrade AR (greater than 50% degradation at 10 μM) are indicated)
7.7	CC1(C)CC(=O)C2=C(C1)Nc1ccc3ncccc3c1C2c1ccc(C#N)c(F)c1 (centres unmarked) [Compound A72]	Degrader (Compounds that degrade AR (greater than 50% degradation at 10 μM) are indicated)
8.6	CC1(C)CC(=O)C2=C(C1)Nc1ccc3ncccc3c1C2c1ccc(F)c(Br)c1 (centres unmarked) [Compound A74]	Degrader (Compounds that degrade AR (greater than 50% degradation at 10 μM) are indicated)
> 10	CC1(C)CC(=O)C2=C(C1)Nc1ccc3ncccc3c1C2c1ccc(Cl)c([N+](=O)[O-])c1 (centres unmarked) [Compound A75]	Degrader (Compounds that degrade AR (greater than 50% degradation at 10 μM) are indicated)
2.2	CC1(C)CC(=O)C2=C(C1)Nc1ccc3ncccc3c1C2c1cc(Br)c(Br)s1 (centres unmarked) [Compound A76]	Degrader (Compounds that degrade AR (greater than 50% degradation at 10 μM) are indicated)
> 10	Cn1ncc2ccc3c(c21)C(c1ccc(F)c(F)c1)C1=C(CC(C)(C)CC1=O)N3 (centres unmarked) [Compound A78]	Degrader (Compounds that degrade AR (greater than 50% degradation at 10 μM) are indicated)
0.9	CC1(C)CC(=O)C2=C(C1)Nc1ccc3c(c1C2c1ccc(Cl)s1)OCO3 (centres unmarked) [Compound A107]	Degrader (Compounds that degrade AR (greater than 50% degradation at 10 μM) are indicated)
4.7	Cn1ncc2ccc3c(c21)C(c1ccc(Cl)s1)C1=C(CC(C)(C)CC1=O)N3 (centres unmarked) [Compound A109]	Degrader (Compounds that degrade AR (greater than 50% degradation at 10 μM) are indicated)
> 10	CC1(C)CC(=O)C2=C(C1)Nc1ccc3cn[nH]c3c1C2c1ccc(Br)s1 (centres unmarked) [Compound A110]	Degrader (Compounds that degrade AR (greater than 50% degradation at 10 μM) are indicated)
1.4	CC1(C)CC(=O)C2=C(C1)Nc1ccc3c(c1C2c1ccc(Br)s1)OCO3 (centres unmarked) [Compound A111]	Degrader (Compounds that degrade AR (greater than 50% degradation at 10 μM) are indicated)
5.1	Cn1ncc2ccc3c(c21)C(c1ccc(Br)s1)C1=C(CC(C)(C)CC1=O)N3 (centres unmarked) [Compound A113]	Degrader (Compounds that degrade AR (greater than 50% degradation at 10 μM) are indicated)
1.1	Cc1ccsc1C1C2=C(CC(C)(C)CC2=O)Nc2ccc3ncccc3c21 (centres unmarked) [Compound A114]	Degrader (Compounds that degrade AR (greater than 50% degradation at 10 μM) are indicated)
> 10	Cc1ccsc1C1C2=C(CC(C)(C)CC2=O)Nc2cc(N3CCCC3)ccc21 (centres unmarked) [Compound A116]	Degrader (Compounds that degrade AR (greater than 50% degradation at 10 μM) are indicated)
2.3	Cc1ccsc1C1C2=C(CC(C)(C)CC2=O)Nc2ccc3ccccc3c21 (centres unmarked) [Compound A117]	Degrader (Compounds that degrade AR (greater than 50% degradation at 10 μM) are indicated)
